{
  "source": "patent US20170226507A1",
  "about": "“COORDINATE CONTROL OF PATHOGENIC SIGNALING BY THE MIR-130/301 FAMILY IN PULMONARY HYPERTENSION AND FIBROPROLIFERATIVE DISEASES” (The Brigham and Women's Hospital, Inc., priority 2014, published 2017)",
  "format_in_all_cases": "cell-based, human",
  "key": {"PASMCs": {"test_system": "PASMCs", "test": "Contraction assay of PASMCs in matrigel", "settings": "conditioned media from transfected PAECs; rosiglitazone in PAECs; ambrisentan on PASMCs", "protocol": "(FIG. 40A) A schematic diagram of co-culture experiments: conditioned media from transfected PAECs (miRNA, anti-miRNA, tiny-LNA or siRNA under normoxic or hypoxic conditions) were filtered and applied onto naïve PASMCs cultured in matrigel. At specific times, PASMCs or PASMC-matrigel cultures were arrested and analyzed for STAT3 activation (phosphorylation) or contraction, respectively.\n50000 PASMC were embedded in 100 ul of matrix gel as previous described (Gagiolli et al) and plated into well of a 96 well plate. After 1 h at 37° C., these matrices were overlaid with 100 ul of conditioned PAECs serum-free medium (transfected with siRNA, miRNA or anti-miRNA and supplemented with Ambriesentan 10 uM). Every 12 h, medium was changed and at day 4 the gels were photographed and the relative diameter of the well and the gel were measured using ImageJ. The percentage contraction was calculated using the formula 100*(well diameter−gel diamter)/well diameter. For the co-culture experiment, conditioned media from PAEC transfected as indicated were applied on PASMCs or Fibroblast previously starved (24 h). Cells were collected at different time and analyzed by western blotting."}, "PAAFs [1]": {"test_system": "PAAFs", "test": "ECM remodeling experiment (naïve PAAFs plated on remodeled ECM)", "protocol": "After the different treatment cells were fixed with PBS/PFA 4% for 10 min and permeabilized with PBS/Triton 100×0.1% for 10 min. Then cells were incubated with anti-YAP1 (#4912; 1/100; Cell signaling) at 4° C. overnight. Secondary antibodies coupled with Alexa-594 (Life Technologies) were used at 1:500. Nuclei were counterstained with DAPI (Sigma).\nFollowing treatment, PAAFs were plated atop soft matrices (see below) in normal growth medium supplemented with 0.5% FBS. After three days, 10 ug/mL of puromycin was added to the growth medium for 48 hours to detach the cells from the matrix. Matrices were washed 3 times (PBS). Naïve PAAFs were then plated on top of these matrices supplemented with normal growth medium 0.5% FBS or harvested for assessment of collagen crosslinking (Picrosirius Red stain). Sixteen hours later, cells were harvested for immunofluorescence experiments or RNA extraction.\nPicrosirius Red stain was achieved through the use of 5 μm paraffin sections stained with 0.1% Picrosirius Red (Direct Red80, Sigma-Aldrich) and counterstained with Weigert's hematoxylin to reveal fibrillar collagen. The sections were then serially imaged using with an analyzer and polarizer oriented parallel and orthogonal to each other. Microscope conditions (lamp brightness, condenser opening, objective, zoom, exposure time, and gain parameters) were constant throughout the imaging of all samples. A minimal threshold was set on appropriate control sections for each experiment in which only the light passing through the orthogonally-oriented polarizers representing fibrous structures (i.e., excluding residual light from the black background) was included. The threshold was maintained for all images across all conditions within each experiment. The area of the transferred regions that was covered by the thresholded light was calculated and at least 10 sections/vessel per condition were averaged together (Image J software)."}, "PAAFs [2]": {"test_system": "PAAFs", "test": "PAAFs in soft or stiff matrix: fibrotic gene expression, immunoblot, collagen secretion", "settings": "PAAFs", "protocol": "Cell Culture and Reagents: Primary human pulmonary arterial adventitial fibroblast cells (PAAFs) were purchased and propagated in FGM cell culture media (Lonza). Experiments were performed at passages 3 to 6. Primary human pulmonary fibroblast cells (PFs) were purchased and propagated in FGM cell culture media (Lonza). Primary human pulmonary arterial endothelial cells (PAECs) were purchased and propagated in EGM-2 cell culture media (Lonza). Experiments were performed at passages 3 to 6. Primary human pulmonary arterial smooth muscle cells (PASMCs) were purchased and propagated in SmGM-2 cell culture media (Lonza). Experiments were performed at passages 3 to 9. HEK293T cells (American Type Culture Collection) were used and cultivated in DMEM containing 10% fetal bovine serum (FBS). Cells were propagated in coated collagen plastic (50 ug/mL) at 37° C. in a humidified 5% CO2 atmosphere. Collagen-coated hydrogel were purchased.\n3D cell culture: Protocol was adapted from previously published protocol (Aragona M et al, 2013 Cell). Cells were embedded in a mixture of Growth Factor Reduced Matrigel (BD Biosciences) and Collagen-I (BD Biosciencres). Collagen-I solution was neutralized on ice with 0.1M NaOH in PBS and adjusted with 0.1N HCl to bring the pH of the solution to 7.5. The Collagen-I solution was then mixed on ice with Matrigel to obtain a final concentration of 1.2 mg/ml (soft matrices) or 3 mg/ml (stiff matrices). Cells were trypsinized, counted, resuspended in growth medium; then, 1 volume of cells was mixed with 1 volume of the ECM mix. 6-well plated were precoated with 1 ml of cellfree 50% medium/50% ECM, and left in the incubator until gelled; then, cells were seeded in drop on top of the pregelled ECM. After gelling, wells were supplemented with normal growth medium, which was changed every 2 days during the experiments.\nOligonucleotides and Transfection: Pre-miRNA oligonucleotides (pre-miR-130a, negative control pre-miR-NC1 and premiR-NC2) and custom designed tiny LNA oligonucleotides (tiny-130: 5′-[…]-3′ (SEQ ID NO: 52), and tiny-NC 5′-[…]-3′ (SEQ ID NO: 54)) were purchased from Life Technologies/Ambion and Exiqon, respectively. siRNAs for PPARγ and OCT4/POU5F1 were purchased from Santa Cruz Biotechnology. siRNA for TIMP2 was purchased from Life Technologies. On Target Plus siRNAs for YAP1, TAZ (WWTR1), LRP8 and scrambled control were purchased from ThermoScientific/Dhermacon. PAAF, PF, PAEC and PASMC were plated in collagen-coated dish (50 ug/mL) and transfected 24 h later at 70-80% confluence using pre-miRNA (5 nM), tiny-LNA (20 nM) or siRNA (25 nM) and Lipofectamine 2000 reagent (Life Technologies), according to the manufacturers' instructions. 8 hours after transfection cells were trypsinized and re-plated in the different hydrogel/3D-matrix.\nPrimary human pulmonary arterial adventitial fibroblast cells (PAAFs) were purchased (ScienCell Research Laboratories) and grown in FGM cell culture media (Lonza). Experiments were performed at passages 3 to 6. Primary human pulmonary arterial endothelial cells (PAECs) were grown in EGM-2 cell culture media (Lonza), and experiments were performed at passages 3 to 6. Primary human pulmonary arterial smooth muscle cells (PASMCs) were cultured in SmGM-2 cell culture media (Lonza), and experiments were performed at passages 3 to 9. HEK293T cells (American Type Culture Collection) were cultivated in DMEM containing 10% fetal bovine serum (FBS). […]"}},
  "data": [
    {"substance": "tiny-LNA-130: fully LNA-modified tiny LNA oligonucleotide 5′-ATTGCACT-3′ (SEQ ID NO: 3) complementary to the seed region of the miR-130/301 family (all LNA, backbone and methylation of C not given here)", "values": [
      {"measurement": "actinomyosin contraction of PASMCs", "setting": "PASMCs", "result": "abrogated"},
      {"measurement": "collagen crosslinking of remodeled ECM", "setting": "PAAFs [1]; Picrosirius Red", "result": "reversed"},
      {"measurement": "collagen, LOX, CTGF, and POU5F1/OCT4 in naïve cells plated on remodeled ECM", "setting": "PAAFs [1]; RT-qPCR", "result": "down-regulated"},
      {"measurement": "miR-130/301 in naïve cells plated on remodeled ECM", "setting": "PAAFs [1]; RT-qPCR", "result": "down-regulated"},
      {"measurement": "collagen content of conditioned media (collagen secretion)", "setting": "PAAFs [2]", "result": "decreased"},
      {"measurement": "ApoE", "setting": "PAAFs [2]; immunoblot, tiny-LNA-130 in stiff conditions", "result": "increased"},
      {"measurement": "collagen transcripts, LOX and CTGF", "setting": "PAAFs [2]; mimic in soft matrix, tiny-LNA-130 in high ECM stiffness", "result": "decreased"}
    ]}
  ]
}
